How the values were obtained:
[1] = Cameleon intravesicular Ca^2+ assay, control vesicles; format: biochemical, S cerevisiae; details: ionomycin 20 μM
Procedure: In complementary measurements, vesicular Ca^2+ was monitored directly by coexpressing ORAI1 with the Ca^2+ sensor D3 cpV or D4 cpV53 fused to the α-mating factor secretion signal to target the sensor to the vesicles. Vesicles that had incorporated ORAI1 were isolated from sec6-4 yeast incubated at the restrictive temperature and were diluted into assay buffer.
S cerevisiae strain NY17 featuring the temperature-sensitive sec6-4 mutation was used for protein expression and purification of secretory vesicles as described (Nakamoto, R. K., et al., J Biol Chem 266, 7940-7949 (1991); Coury, L. A., et al., Methods Enzymol 306, 169-186 (1999)). Cells were grown to midlog phase at 25° C. in uracil-deficient synthetic complete medium containing glucose, which was subsequently exchanged for galactose to induce transgene expression over a period of 8 hours. The temperature was then switched to 37° C. for 3 hours to force intracellular accumulation of secretory vesicles. […] Myc-tagged ORAI1 was detected in Western blots using the murine anti-Myc monoclonal antibody 9E10.
Changes in intravesicular [Ca^2+] were monitored with the modified Ca^2+ sensors cameleon D3 cpV and D4 cpV53. […] Emission spectra were recorded from 450-560 nm with excitation set at 410 nm, with a 5-8 nm slitwidth for both excitation and emission, and corrected by subtracting the spectrum obtained with buffer alone. […]

GST-ORAI1^CT = molecular target: T1, GST-ORAI1^CT (Homo sapiens, UniProt Q96D31); experiment: GST pull down assay with GST-ORAI1^CT (residues 259-301); format: binding; details: SDS-PAGE, Coomassie staining
T1 construct: cDNA encoding ORAI1 residues 259-301 was amplified using PCR; made in house; host or cells: E. coli BL21 (DE3), pGEX-4T-1
Text: Recruitment of ORAI1 to puncta by full-length STIM 1 depends on a direct or indirect interaction of STIM 1 with the C-terminal cytoplasmic tail of ORAI134,51. Therefore the direct interaction of recombinant STIM 1 proteins was next examined with a bacterially expressed fusion protein, GST-ORAI^CT, containing the cytoplasmic tail of ORAI1, residues 259-301. STIM 1^CT and the other STIM 1 fragments, except for STIM 1 (233-463), bound to GST-ORAI1^CT immobilized on resin (FIG. 2B). Binding was dependent on recognition of ORAI^CT, since there was no binding to GST alone. Because all input and bound proteins on the gel was visualized with Coomassie Brilliant Blue staining and detected no other proteins, the current experiment is unambiguous proof of a direct protein-protein interaction between STIM 1^CT and ORAI1^CT.
The cDNAs encoding mouse STIM 1^CT fragments (residues 233-685, 233-666, 233-600, 233-531, 233-498, or 233-463) were amplified via PCR and cloned into the pProEX HTb vector (Invitrogen) between the BamHI and XhoI sites for expression as His-tagged proteins. For production of the C-terminal cytoplasmic tail of ORAI 1 as a GST fusion protein, coupled to GST through the flexible linker—GSGSRGSPEF—(SEQ ID NO: 1), cDNA encoding ORAI1 residues 259-301 was amplified using PCR and cloned into the pGEX-4T-1 vector (GE Healthcare) between the BamHI and NotI sites. […]

T1 sequence (Q96D31 259-301): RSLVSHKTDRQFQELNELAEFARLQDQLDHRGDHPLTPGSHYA

Molecule	Ca^2+ release from control vesicles (cameleon) [1]	binding to GST-ORAI1^CT immobilized on resin (GST-ORAI1^CT)
C[C@H](CCC(=O)O)C[C@H](C)C[C@H](C)C(=O)/C=C(\O)[C@H](C)C[C@H](C)C/C=C/[C@@H](C)[C@@H](O)[C@@H](C)[C@@H](O)C[C@@H]1CC[C@@](C)([C@H]2CC[C@@](C)([C@@H](C)O)O2)O1 [ionomycin, reference compound]	effective in releasing Ca^2+	
STIM1^CT: cytoplasmic region of STIM1, mouse residues 233-685, His-tagged recombinant protein expressed in E coli		bound

Reference: patent publication US20120264231A1, “ASSAY FOR ORAI CALCIUM CHANNEL REGULATORS” (IMMUNE DISEASE INSTITUTE, INC., priority 2009, published 2012)
